Legend:
Details in all cases: Compound concentration 1000.0 nM
[1] = molecular target: Serine/threonine-protein kinase BRSK1 (Homo sapiens) (UniProt Q8TDC3)
[2] = tested on: Mast/stem cell growth factor receptor Kit (Homo sapiens), P10721 [D816V]
[3] = molecular target: Serine/threonine-protein kinase/endoribonuclease IRE1 (Homo sapiens) (UniProt O75460)
[4] = molecular target: Ephrin type-A receptor 6 (Homo sapiens) (UniProt Q9UF33)
[5] = molecular target: Serine/threonine-protein kinase Nek1 (Homo sapiens) (UniProt Q96PY6)
[6] = molecular target: RAC-alpha serine/threonine-protein kinase (Homo sapiens) (UniProt P31749)
[7] = molecular target: Dual specificity tyrosine-phosphorylation-regulated kinase 1A (Homo sapiens) (UniProt Q13627)
[8] = tested on: Receptor-type tyrosine-protein kinase FLT3 (Homo sapiens), P36888 [UNDEFINED MUTATION]
[9] = molecular target: Mitogen-activated protein kinase 15 (Homo sapiens) (UniProt Q8TD08)
[10] = molecular target: Receptor tyrosine-protein kinase erbB-4 (Homo sapiens) (UniProt Q15303)
[11] = molecular target: Tyrosine-protein kinase Tec (Homo sapiens) (UniProt P42680)
[12] = molecular target: Dual specificity protein kinase TTK (Homo sapiens) (UniProt P33981)
[13] = molecular target: Ribosomal protein S6 kinase alpha-4 (Homo sapiens) (UniProt O75676)
[14] = molecular target: Leukocyte tyrosine kinase receptor (Homo sapiens) (UniProt P29376)
[15] = tested on: Tyrosine-protein kinase ABL1 (Homo sapiens), P00519 [T315I]
[16] = molecular target: Protein kinase C iota type (Homo sapiens) (UniProt P41743)
[17] = molecular target: Platelet-derived growth factor receptor alpha (Homo sapiens) (UniProt P16234)
[18] = molecular target: Calcium/calmodulin-dependent protein kinase type II subunit alpha (Homo sapiens) (UniProt Q9UQM7)
[19] = tested on: Mast/stem cell growth factor receptor Kit (Homo sapiens), P10721 [V559D,V654A]
[20] = molecular target: Homeodomain-interacting protein kinase 3 (Homo sapiens) (UniProt Q9H422)
[21] = molecular target: Receptor-interacting serine/threonine-protein kinase 1 (Homo sapiens) (UniProt Q13546)
[22] = molecular target: Serine/threonine-protein kinase PAK 5 (Homo sapiens) (UniProt Q9P286)
[23] = tested on: Receptor-type tyrosine-protein kinase FLT3 (Homo sapiens), P36888 [D835V]
[24] = tested on: Epidermal growth factor receptor (Homo sapiens), P00533 [UNDEFINED MUTATION]
[25] = molecular target: Receptor-type tyrosine-protein kinase FLT3 (Homo sapiens) (UniProt P36888)
[26] = tested on: Leucine-rich repeat serine/threonine-protein kinase 2 (Homo sapiens), Q5S007 [G2019S]
[27] = molecular target: MAP kinase-interacting serine/threonine-protein kinase 2 (Homo sapiens) (UniProt Q9HBH9)
[28] = molecular target: Tyrosine-protein kinase TXK (Homo sapiens) (UniProt P42681)
[29] = molecular target: Cyclin-dependent kinase-like 2 (Homo sapiens) (UniProt Q92772)
[30] = molecular target: Serine/threonine-protein kinase ULK1 (Homo sapiens) (UniProt O75385)
[31] = molecular target: Maternal embryonic leucine zipper kinase (Homo sapiens) (UniProt Q14680)
[32] = molecular target: Serine/threonine-protein kinase Chk1 (Homo sapiens) (UniProt O14757)
[33] = molecular target: Mitotic checkpoint serine/threonine-protein kinase BUB1 (Homo sapiens) (UniProt O43683)
[34] = molecular target: Transient receptor potential cation channel subfamily M member 6 (Homo sapiens) (UniProt Q9BX84)
[35] = tested on: Epidermal growth factor receptor (Homo sapiens), P00533 [T790M]
[36] = molecular target: Vascular endothelial growth factor receptor 3 (Homo sapiens) (UniProt P35916)
[37] = molecular target: cAMP-dependent protein kinase catalytic subunit beta (Homo sapiens) (UniProt P22694)
[38] = molecular target: Protein kinase C theta type (Homo sapiens) (UniProt Q04759)
[39] = tested on: Epidermal growth factor receptor (Homo sapiens), P00533 [UNDEFINED MUTATION]; remark: listed apart in the source
[40] = molecular target: 1-phosphatidylinositol 3-phosphate 5-kinase (Homo sapiens) (UniProt Q9Y2I7)
[41] = molecular target: Serine/threonine-protein kinase D2 (Homo sapiens) (UniProt Q9BZL6)
[42] = molecular target: Membrane-associated tyrosine- and threonine-specific cdc2-inhibitory kinase (Homo sapiens) (UniProt Q99640)
[43] = molecular target: Peripheral plasma membrane protein CASK (Homo sapiens) (UniProt O14936)
[44] = molecular target: Serine/threonine-protein kinase tousled-like 1 (Homo sapiens) (UniProt Q9UKI8)

Measured: residual activity

Sequence of Platelet-derived growth factor receptor alpha (Homo sapiens) (P16234 whole entry): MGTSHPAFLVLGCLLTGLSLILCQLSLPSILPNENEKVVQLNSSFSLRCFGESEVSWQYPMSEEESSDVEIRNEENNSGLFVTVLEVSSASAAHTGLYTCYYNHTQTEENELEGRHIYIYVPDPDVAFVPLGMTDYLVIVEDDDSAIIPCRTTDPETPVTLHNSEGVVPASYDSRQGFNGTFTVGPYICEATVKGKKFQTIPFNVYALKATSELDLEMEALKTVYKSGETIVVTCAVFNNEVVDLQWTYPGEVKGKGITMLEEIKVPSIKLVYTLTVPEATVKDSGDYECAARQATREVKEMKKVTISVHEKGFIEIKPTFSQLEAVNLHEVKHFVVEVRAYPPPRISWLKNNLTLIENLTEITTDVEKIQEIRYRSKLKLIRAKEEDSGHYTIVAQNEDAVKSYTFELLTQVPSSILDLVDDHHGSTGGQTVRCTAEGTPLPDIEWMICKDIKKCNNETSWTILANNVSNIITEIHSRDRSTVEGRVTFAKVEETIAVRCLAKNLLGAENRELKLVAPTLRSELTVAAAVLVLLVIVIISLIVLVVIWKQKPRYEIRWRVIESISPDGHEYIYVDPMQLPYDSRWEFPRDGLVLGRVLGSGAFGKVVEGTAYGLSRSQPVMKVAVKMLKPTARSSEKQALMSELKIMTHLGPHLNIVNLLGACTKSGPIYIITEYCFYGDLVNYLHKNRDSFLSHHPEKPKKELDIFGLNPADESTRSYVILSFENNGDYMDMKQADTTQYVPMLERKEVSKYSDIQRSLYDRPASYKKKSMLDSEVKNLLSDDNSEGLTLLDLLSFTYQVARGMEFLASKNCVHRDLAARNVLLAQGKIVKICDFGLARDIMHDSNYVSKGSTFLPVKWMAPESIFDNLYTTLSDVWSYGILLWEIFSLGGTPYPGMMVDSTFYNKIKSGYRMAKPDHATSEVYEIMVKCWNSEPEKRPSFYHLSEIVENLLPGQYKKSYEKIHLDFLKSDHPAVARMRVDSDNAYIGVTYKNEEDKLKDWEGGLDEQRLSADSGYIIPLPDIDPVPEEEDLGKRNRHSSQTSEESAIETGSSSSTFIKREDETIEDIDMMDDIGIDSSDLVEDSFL
Sequence of Serine/threonine-protein kinase/endoribonuclease IRE1 (Homo sapiens) (O75460 19-977 limits assumed): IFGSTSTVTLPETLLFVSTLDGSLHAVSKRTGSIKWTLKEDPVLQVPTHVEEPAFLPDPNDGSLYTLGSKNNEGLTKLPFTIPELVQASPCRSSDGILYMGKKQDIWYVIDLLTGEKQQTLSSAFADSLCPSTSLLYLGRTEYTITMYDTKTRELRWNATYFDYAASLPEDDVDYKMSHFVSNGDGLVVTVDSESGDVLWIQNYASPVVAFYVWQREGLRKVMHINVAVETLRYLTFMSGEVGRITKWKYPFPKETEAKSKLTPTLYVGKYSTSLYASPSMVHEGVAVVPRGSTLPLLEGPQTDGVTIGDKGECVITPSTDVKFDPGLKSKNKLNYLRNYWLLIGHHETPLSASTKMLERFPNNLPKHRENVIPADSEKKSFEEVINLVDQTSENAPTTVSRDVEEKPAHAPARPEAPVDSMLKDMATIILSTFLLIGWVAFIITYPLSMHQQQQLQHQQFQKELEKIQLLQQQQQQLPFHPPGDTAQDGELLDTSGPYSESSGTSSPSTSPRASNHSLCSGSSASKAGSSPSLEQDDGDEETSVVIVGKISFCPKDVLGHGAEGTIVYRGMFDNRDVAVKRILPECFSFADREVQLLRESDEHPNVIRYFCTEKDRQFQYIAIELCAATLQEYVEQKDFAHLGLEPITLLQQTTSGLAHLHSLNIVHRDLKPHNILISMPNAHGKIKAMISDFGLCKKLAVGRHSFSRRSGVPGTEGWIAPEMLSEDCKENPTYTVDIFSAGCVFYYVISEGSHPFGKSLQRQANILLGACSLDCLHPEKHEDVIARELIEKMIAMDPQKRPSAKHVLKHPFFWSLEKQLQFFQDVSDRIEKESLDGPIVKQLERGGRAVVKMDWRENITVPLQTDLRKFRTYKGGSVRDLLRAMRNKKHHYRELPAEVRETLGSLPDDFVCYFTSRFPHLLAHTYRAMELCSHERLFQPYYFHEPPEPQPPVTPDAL
Sequence of Mitogen-activated protein kinase 15 (Homo sapiens) (Q8TD08 whole entry): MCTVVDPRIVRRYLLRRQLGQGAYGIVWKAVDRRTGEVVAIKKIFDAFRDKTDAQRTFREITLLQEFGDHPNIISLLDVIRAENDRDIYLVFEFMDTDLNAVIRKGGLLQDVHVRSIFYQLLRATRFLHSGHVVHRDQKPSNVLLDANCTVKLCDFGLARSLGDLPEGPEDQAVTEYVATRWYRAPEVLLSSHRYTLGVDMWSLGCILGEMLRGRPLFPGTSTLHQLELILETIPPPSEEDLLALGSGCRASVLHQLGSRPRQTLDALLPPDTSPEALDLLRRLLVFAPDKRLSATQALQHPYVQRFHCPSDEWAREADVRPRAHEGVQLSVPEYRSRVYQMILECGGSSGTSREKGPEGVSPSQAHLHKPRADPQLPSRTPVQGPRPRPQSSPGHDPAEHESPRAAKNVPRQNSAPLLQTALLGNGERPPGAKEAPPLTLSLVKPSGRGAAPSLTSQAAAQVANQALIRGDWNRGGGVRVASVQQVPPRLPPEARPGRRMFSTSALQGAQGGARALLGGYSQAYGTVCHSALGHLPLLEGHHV
Sequence of Maternal embryonic leucine zipper kinase (Homo sapiens) (Q14680 whole entry, looked up): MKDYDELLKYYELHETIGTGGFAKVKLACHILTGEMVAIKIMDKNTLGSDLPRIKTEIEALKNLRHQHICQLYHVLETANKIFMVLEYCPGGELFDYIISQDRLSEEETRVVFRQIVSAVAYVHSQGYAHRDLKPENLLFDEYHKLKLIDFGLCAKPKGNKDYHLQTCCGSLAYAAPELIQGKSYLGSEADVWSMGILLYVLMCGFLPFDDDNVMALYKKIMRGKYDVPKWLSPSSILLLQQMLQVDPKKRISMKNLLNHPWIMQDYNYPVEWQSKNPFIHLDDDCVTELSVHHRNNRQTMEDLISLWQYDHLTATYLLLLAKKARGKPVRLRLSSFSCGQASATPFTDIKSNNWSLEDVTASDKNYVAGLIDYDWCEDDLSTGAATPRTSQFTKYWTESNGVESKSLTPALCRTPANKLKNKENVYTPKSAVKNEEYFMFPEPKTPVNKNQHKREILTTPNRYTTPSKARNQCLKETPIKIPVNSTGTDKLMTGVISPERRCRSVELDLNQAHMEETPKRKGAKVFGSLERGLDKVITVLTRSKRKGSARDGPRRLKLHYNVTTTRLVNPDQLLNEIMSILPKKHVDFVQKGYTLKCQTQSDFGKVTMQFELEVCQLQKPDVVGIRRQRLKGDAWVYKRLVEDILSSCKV
Sequence of Serine/threonine-protein kinase BRSK1 (Homo sapiens) (Q8TDC3 whole entry): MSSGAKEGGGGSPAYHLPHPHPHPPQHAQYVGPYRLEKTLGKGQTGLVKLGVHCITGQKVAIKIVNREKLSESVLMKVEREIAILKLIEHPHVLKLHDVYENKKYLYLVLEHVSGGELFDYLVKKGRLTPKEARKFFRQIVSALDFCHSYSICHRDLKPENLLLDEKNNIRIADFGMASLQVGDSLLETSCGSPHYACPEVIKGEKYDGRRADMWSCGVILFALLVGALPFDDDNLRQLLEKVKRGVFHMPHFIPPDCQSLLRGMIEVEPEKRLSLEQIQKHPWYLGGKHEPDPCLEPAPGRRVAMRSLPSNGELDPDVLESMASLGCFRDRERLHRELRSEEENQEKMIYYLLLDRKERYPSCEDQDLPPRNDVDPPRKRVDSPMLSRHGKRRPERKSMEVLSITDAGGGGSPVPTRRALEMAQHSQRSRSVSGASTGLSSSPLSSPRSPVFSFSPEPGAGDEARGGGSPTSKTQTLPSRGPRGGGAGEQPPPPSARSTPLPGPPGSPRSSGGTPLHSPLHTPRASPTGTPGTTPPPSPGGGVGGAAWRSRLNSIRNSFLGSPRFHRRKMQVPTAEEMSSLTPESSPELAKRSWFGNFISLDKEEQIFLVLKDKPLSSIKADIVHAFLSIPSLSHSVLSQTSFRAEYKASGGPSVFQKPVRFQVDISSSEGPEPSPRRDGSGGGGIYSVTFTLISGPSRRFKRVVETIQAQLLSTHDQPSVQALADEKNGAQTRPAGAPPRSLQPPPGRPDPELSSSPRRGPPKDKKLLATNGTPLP
Sequence of Protein kinase C theta type (Homo sapiens) (Q04759 whole entry, looked up): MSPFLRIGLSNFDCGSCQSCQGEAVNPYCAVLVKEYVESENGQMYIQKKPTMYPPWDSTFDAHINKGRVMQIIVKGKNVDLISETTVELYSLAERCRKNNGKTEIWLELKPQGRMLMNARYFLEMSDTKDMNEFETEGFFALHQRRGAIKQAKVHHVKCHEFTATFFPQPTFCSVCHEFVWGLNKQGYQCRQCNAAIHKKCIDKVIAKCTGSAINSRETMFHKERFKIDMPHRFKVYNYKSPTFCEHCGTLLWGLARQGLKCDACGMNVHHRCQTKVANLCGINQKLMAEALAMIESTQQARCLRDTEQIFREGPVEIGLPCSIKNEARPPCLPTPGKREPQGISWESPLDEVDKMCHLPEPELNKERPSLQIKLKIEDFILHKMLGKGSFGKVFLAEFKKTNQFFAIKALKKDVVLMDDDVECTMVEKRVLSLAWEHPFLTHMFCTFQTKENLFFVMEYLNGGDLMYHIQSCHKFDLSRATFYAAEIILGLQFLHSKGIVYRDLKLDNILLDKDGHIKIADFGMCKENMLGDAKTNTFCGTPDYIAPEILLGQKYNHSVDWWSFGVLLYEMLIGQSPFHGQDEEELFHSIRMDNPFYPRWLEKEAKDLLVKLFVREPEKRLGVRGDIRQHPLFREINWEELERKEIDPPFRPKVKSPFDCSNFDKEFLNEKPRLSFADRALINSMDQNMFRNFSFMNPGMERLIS

CC(=O)N1CCC(c2ccc(C(=O)NC3=NCCN3)cc2C(F)(F)F)CC1 [BI 0054]
inactive: [1] 100% | [2] 91% | [3] 60% | [4] 98% | [5] 100% | [6] 100% | [7] 74% | [8] 89% | [9] 100% | [10] 100% | [11] 100% | [12] 100% | [13] 100% | [14] 100% | [15] 92% | [16] 83% | [17] 92% | [18] 94% | [19] 100% | [20] 72% | [21] 100% | [22] 87% | [23] 97% | [24] 89% | [25] 100% | [26] 100% | [27] 100% | [28] 82% | [29] 100% | [30] 85% | [31] 100% | [32] 100% | [33] 100% | [34] 90% | [35] 100% | [36] 98% | [37] 100% | [38] 93% | [39] 100% | [40] 88% | [41] 100% | [42] 100% | [43] 85% | [44] 100%

CC(=O)N1CCC(c2ccc(C(=O)NC(=N)N)cc2C(F)(F)F)CC1 [BI 9627]
inactive: [1] 87% | [2] 100% | [3] 100% | [4] 96% | [5] 100% | [6] 100% | [7] 74% | [8] 100% | [9] 100% | [10] 100% | [11] 100% | [12] 100% | [13] 100% | [14] 100% | [15] 95% | [16] 100% | [17] 100% | [18] 100% | [19] 100% | [20] 82% | [21] 100% | [22] 100% | [23] 92% | [24] 100% | [25] 100% | [26] 100% | [27] 100% | [28] 100% | [29] 100% | [30] 100% | [31] 100% | [32] 95% | [33] 85% | [34] 98% | [35] 100% | [36] 89% | [37] 100% | [38] 91% | [39] 90% | [40] 84% | [41] 100% | [42] 100% | [43] 100% | [44] 100%

— ChEMBL document CHEMBL4507279, “Data for DCP probe BI-9627” (2021)
